Measurements: ChEMBL document CHEMBL1201862, “PubChem BioAssay data set” (2004)
Several values for one entry are separate records, joined by “and”; a condition that tells them apart may be missing. Equal entries are not always repeated. Activity calls are given as the source filed them.

Experiments:
[1] = target: T1, Replicative DNA helicase DnaB (Mycobacterium tuberculosis, UniProt P9WMR3); experiment: DnaB intein splicing inhibitors, dose response, biochemical, cell-free fluorescence (AID 449749); assay type: functional
T1 sequence (P9WMR3 whole entry): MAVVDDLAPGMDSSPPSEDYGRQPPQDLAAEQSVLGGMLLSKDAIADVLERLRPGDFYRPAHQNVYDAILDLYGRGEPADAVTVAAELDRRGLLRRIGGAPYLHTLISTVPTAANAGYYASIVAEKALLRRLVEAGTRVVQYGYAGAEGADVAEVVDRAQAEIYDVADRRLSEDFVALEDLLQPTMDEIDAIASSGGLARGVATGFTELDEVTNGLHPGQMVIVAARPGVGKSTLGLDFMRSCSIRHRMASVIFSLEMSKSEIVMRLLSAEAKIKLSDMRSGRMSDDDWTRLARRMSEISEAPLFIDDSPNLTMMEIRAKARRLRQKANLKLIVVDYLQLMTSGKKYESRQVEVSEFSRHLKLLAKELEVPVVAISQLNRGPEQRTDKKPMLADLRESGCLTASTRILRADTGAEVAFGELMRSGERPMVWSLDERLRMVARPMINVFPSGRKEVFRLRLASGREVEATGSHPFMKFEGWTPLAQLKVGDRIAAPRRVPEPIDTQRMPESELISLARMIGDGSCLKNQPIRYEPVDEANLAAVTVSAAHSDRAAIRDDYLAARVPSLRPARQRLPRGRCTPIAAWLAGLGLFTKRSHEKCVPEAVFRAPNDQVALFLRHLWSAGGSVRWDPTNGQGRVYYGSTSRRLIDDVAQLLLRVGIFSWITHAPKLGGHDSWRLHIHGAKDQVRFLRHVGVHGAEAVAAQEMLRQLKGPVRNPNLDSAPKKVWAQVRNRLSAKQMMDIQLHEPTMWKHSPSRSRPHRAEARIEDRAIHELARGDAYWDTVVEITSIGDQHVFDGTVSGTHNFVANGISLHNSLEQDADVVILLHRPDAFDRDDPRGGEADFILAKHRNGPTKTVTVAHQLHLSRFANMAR

Protein RecA = target: T2, Protein RecA (Mycobacterium tuberculosis, UniProt P9WHJ3); experiment: Fluorescence Cell-Free Homogeneous Dose Retest to Identify Inhibitors of RecA-Intein Splicing Activity. [Related pubchem assays (depositor defined):AID2097, AID2223, AID489010, AID492950]; assay type: functional
T2 sequence (P9WHJ3 whole entry): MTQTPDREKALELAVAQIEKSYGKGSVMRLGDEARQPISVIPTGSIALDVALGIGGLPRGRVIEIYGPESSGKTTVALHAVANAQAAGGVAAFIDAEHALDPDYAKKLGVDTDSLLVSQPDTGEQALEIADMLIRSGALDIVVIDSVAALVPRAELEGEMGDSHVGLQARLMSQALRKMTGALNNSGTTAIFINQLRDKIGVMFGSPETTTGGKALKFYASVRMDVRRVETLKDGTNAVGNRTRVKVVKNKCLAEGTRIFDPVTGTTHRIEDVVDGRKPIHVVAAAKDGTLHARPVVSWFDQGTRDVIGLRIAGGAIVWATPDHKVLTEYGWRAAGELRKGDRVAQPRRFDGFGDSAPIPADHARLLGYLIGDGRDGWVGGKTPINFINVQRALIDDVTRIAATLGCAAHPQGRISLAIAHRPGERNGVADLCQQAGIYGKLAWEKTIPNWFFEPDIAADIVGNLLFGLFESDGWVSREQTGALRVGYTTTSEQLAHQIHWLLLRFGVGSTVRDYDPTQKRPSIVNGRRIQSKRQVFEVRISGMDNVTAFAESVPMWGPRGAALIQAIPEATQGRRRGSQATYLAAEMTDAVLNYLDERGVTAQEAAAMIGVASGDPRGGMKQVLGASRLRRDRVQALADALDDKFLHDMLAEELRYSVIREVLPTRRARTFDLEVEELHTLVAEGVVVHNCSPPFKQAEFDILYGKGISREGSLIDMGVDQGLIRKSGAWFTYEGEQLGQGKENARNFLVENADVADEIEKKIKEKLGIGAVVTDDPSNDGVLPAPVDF

[2] = target: T3, Zinc finger protein mex-5 (Caenorhabditis elegans, UniProt Q9XUB2); experiment: potency of MEX-5 RNA-binding blockers – biochemical, C. elegans, fluorescence polarization, dose response (AID 1960)
T3 sequence (Q9XUB2 whole entry): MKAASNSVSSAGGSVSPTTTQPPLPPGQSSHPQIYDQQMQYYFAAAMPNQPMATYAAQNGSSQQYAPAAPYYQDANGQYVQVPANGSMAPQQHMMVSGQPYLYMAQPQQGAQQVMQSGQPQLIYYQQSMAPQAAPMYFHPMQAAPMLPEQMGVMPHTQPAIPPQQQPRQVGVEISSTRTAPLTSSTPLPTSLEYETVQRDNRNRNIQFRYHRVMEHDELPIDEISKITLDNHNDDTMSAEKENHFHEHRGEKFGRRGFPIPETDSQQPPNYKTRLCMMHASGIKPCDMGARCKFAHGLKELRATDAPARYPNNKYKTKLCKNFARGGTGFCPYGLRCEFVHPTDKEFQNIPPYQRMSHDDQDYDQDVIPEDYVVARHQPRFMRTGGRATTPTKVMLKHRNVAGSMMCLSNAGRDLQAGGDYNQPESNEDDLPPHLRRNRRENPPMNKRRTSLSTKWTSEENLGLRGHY

[3] = target: T4, RNA-binding protein pos-1 (Caenorhabditis elegans, UniProt G5EF15); experiment: disruptors of C. elegans POS-1 RNA interaction – biochemical, fluorescence polarization, dose response (AID 1964);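 further: purified POS-1 fused to maltose binding protein made in E. coli; potency of compounds blocking POS-1 binding to fluorescent RNA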
T4 sequence (G5EF15 whole entry): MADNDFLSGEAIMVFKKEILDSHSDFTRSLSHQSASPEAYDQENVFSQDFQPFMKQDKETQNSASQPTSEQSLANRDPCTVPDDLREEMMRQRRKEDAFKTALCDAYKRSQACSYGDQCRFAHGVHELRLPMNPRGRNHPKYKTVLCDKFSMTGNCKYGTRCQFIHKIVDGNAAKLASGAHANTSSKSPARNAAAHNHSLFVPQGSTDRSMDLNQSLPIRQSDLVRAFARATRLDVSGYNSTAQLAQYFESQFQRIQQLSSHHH

Cytochrome P450 2D6 = Cytochrome P450 2D6 (Homo sapiens, UniProt P10635);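 further: CYP2D6 member of a cytochrome P450 panel assay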
Sequence of Cytochrome P450 2D6 (P10635 whole entry): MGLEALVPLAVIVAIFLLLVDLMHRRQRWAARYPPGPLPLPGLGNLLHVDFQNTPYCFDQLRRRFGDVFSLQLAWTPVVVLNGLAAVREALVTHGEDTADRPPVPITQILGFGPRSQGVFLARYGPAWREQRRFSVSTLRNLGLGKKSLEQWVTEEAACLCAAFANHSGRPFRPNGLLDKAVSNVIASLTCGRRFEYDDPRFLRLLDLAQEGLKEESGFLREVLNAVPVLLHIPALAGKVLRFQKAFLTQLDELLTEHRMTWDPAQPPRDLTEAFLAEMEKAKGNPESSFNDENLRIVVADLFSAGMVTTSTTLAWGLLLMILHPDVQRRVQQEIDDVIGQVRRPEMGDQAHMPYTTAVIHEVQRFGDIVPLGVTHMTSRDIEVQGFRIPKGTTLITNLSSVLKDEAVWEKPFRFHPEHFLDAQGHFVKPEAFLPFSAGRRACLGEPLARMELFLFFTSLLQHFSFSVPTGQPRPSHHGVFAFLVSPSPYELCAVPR

cells = assay type: functional
Cytochrome P450 2C9 = Cytochrome P450 2C9 (Homo sapiens, UniProt P11712)
Sequence of Cytochrome P450 2C9 (P11712 whole entry): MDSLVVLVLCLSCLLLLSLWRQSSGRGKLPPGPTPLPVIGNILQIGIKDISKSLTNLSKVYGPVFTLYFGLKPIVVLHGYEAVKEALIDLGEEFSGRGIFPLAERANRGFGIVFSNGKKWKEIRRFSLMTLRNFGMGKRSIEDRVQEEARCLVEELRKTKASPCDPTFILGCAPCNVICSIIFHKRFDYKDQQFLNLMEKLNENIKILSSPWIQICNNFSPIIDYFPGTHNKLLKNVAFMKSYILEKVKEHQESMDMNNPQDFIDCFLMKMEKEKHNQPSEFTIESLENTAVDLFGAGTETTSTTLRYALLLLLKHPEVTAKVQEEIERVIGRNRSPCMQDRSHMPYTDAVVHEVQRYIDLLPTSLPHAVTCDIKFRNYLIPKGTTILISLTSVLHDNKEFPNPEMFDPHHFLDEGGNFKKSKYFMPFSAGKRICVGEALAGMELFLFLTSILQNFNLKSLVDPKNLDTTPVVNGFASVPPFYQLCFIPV

Cytochrome P450 1A2 = target: T5, Cytochrome P450 1A2 (Homo sapiens, UniProt P05177);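 further: PubChem cytochrome P450 panel assay, CYP1A2 panel member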
T5 sequence (P05177 whole entry): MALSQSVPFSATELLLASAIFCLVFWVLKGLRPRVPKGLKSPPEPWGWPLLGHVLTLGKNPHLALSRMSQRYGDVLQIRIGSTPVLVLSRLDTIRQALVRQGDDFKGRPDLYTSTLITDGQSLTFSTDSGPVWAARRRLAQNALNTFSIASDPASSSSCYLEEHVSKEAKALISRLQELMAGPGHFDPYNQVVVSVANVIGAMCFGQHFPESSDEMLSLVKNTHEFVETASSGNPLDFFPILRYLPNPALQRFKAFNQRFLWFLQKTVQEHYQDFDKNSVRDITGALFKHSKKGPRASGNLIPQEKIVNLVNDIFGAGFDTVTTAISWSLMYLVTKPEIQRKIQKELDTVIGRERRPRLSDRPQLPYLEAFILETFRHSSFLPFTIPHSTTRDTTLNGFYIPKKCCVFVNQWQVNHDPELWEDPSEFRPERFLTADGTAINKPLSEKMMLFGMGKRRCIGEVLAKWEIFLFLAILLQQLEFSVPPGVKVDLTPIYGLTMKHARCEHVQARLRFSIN

Streptococcus = experiment: GAS UMAA2166 growth inhibition – luminescence, BacTiterGlo, counter-screen for streptokinase expression inhibitor project, dose response (AID 1915); assay type: functional, organism-based;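 further: potency for reduction of bacterial viability or growth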
Streptokinase A = target: T6, Streptokinase A (Streptococcus pyogenes serotype M1, UniProt P10520); experiment: viability-normalized secreted streptokinase activity reduction – plasminogen activation absorbance, OD405, dose response (AID 1914); assay type: functional, Streptococcus pyogenes M1 GAS;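 further: secreted streptokinase activity via plasminogen activation per viability signal from cell pellet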
T6 sequence (P10520 whole entry): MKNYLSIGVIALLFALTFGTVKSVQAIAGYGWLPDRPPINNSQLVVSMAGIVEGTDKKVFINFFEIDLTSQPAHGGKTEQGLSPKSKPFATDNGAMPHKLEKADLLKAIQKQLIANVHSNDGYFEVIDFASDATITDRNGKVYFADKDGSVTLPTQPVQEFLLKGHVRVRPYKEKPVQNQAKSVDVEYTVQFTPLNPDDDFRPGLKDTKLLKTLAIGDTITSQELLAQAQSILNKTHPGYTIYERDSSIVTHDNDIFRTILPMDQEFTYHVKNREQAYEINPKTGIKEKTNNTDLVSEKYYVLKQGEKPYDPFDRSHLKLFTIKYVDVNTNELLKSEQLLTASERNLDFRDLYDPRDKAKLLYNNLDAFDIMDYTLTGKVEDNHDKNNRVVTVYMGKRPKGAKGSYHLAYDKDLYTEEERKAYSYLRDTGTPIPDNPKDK

[4] = test system: Streptococcus sp. 'group A'; experiment: Streptococcus pyogenes SK(-)GAS viability under kanamycin – luminescence, BacTiterGlo, confirmation, counter-screen for streptokinase expression inhibitor project, dose response (AID 1900); assay type: functional, organism-based

CN(C)/C=C/C(=O)c1ccc2noc(-c3ccc(F)cc3)c2c1
AC50 [1]: > 380 µM (inactive)
EC50 (Protein RecA): > 380 µM (inactive)

CC1(CCl)[N+]([O-])=C2CCCCC2=[N+]1[O-]
EC50 [2]: 121 µM (active)
EC50 [3]: > 300 µM (not active)

N#Cc1ccccc1-c1ccc2ncnc(NCCN3CCOCC3)c2c1
AC50 (Cytochrome P450 2D6): 39.8 µM (inconclusive)

Cc1ccc2oc(=O)c3cc(C(=O)NCCCN4CCCCCC4)sc3c2c1
IC50 (cells): > 50 µM (active)

c1ccc(CN2CCC3(CCNCC3)CC2)cc1
AC50 (Cytochrome P450 2C9): 25.1 µM (inconclusive)

CCc1c2c(nc3cccc(SC)c13)COC2
AC50 (Cytochrome P450 2D6): 39.8 µM (inconclusive)

Cc1cc(NCc2ccccn2)ccc1Br
AC50 (Cytochrome P450 2C9): 7.08 µM (inconclusive)

CCn1nc(C)c(C2C(C#N)=C(N)Oc3[nH]nc(C)c32)c1C (stereo not drawn)
AC50 [1]: 88.9 µM (active)
EC50 (Protein RecA): 12.5 µM (active)

CC[C@H](C)C(=O)O[C@H]1CCC=C2C=C[C@H](C)[C@H](CC[C@@H]3C[C@H](O)CC(=O)O3)[C@H]21
AC50 (Cytochrome P450 1A2): 31.6 µM (inconclusive)
AC50 (Cytochrome P450 2D6): 31.6 µM (inconclusive)

CSCC(C)N1CCC(N2CCC(C(=O)NCc3ccccn3)CC2)CC1 (stereo not drawn)
EC50 [2]: > 300 µM (not active)
EC50 [3]: 161 µM (active)

Cc1ccccc1CSCCN=C(S)Nc1ccccc1
EC50 [2]: > 300 µM (not active)
EC50 [3]: > 300 µM (not active)

CCCCCC(=O)Nc1cccc(-c2nc3ncccc3o2)c1
AC50 (Cytochrome P450 2D6): 22.4 µM (inconclusive)

CC1C(=O)NN=C1C(=O)N/N=C/c1ccco1 (stereo not drawn)
EC50 [2]: > 300 µM (not active)
EC50 [3]: > 300 µM (not active)

N#CC(C(=O)NCc1ccco1)c1nc2ccccc2nc1N1CCOCC1 (stereo not drawn)
IC50 (cells): 49 µM (active)

Cc1cccc(NC(=O)COC(=O)CCc2c[nH]c3ccccc23)c1
IC50 (cells): 0.71 µM (active)

C/C(=N/Nc1ccc2ccccc2n1)c1ccccc1O
AC50 (Cytochrome P450 2C9): 2.51 µM (inconclusive)

COc1ccc2c(c1OC)C(=O)O[C@H]2[C@H]1c2cc3c(cc2CCN1C)OCO3 [1R,9S-HYDRASTINE]
AC50 (Cytochrome P450 2C9): 1.58 nM (inconclusive) and 15.8 µM (inconclusive)

Cc1ccccc1OCCN=C(S)Nc1ccccc1
AC50 (Cytochrome P450 1A2): 3.16 µM (inconclusive)
AC50 (Cytochrome P450 2C9): 10 µM (inconclusive)

CC1(C)N=C(SCC(=O)Nc2ccc(Cl)cc2Cl)C(c2ccccc2)=N1
AC50 [1]: 10.7 µM (active)
EC50 (Protein RecA): 17.7 µM (active)

O=C(O)c1cc(Cl)c2c(c1)[C@@H]1C=CC[C@@H]1[C@H](c1ccc(S(=O)(=O)N3CCOCC3)cc1)N2
EC50 [2]: 29.7 µM (active)
EC50 [3]: > 300 µM (not active)

O=C(Cc1ccccc1)NNC(=O)c1cnccn1
EC50 [2]: 41.4 µM (active)
EC50 [3]: > 300 µM (not active)

COc1ccccc1-c1cc(Nc2ccc(F)cc2)ncn1
AC50 (Cytochrome P450 2D6): 39.8 µM (inconclusive)

O=C1c2ccccc2C(=O)N1CCCCN(C(=O)c1ccc([N+](=O)[O-])cc1)c1ccc(Cl)cc1
AC50 (Cytochrome P450 2D6): 15.8 µM (inconclusive)

CCCC(CCC)C(=O)NNc1cc(O)c2c(=O)n(C)c(=O)n(C)c2n1
AC50 (Cytochrome P450 2C9): 0.178 µM (inconclusive)

O=S(=O)(Nc1cccnc1Cl)c1ccc2c(c1)OCCO2
AC50 (Cytochrome P450 2C9): 15.8 µM (inconclusive)

Cc1c(NC(=O)C(Sc2ccccc2)c2ccccc2)cccc1[N+](=O)[O-] (stereo not drawn)
AC50 (Cytochrome P450 2D6): 3.16 µM (inconclusive)

COC(=O)COc1ccc2c(=O)c(-c3ccccc3)coc2c1
IC50 (cells): < 0.1 µM (active)

CCN1C=CC2=C(C#N)C(N)C(C#N)(C#N)C(c3ccccc3C(F)(F)F)C2C1 (stereo not drawn)
EC50 [2]: > 300 µM (not active)
EC50 [3]: 260 µM (inconclusive)

CCCc1nc(SCC(=O)N2CCc3ccccc3C2)c2ccccc2n1
AC50 [1]: 14.1 µM (active)
EC50 (Protein RecA): 14.6 µM (active)

COc1cccc(C(=O)OCC(=O)Nc2nnc(-c3ccccc3)o2)c1
EC50 (Streptococcus): 60.9 µM (active)
EC50 (Streptokinase A): > 150 µM (not active)
IC50 (cells): 14.8 µM (active)
EC50 [4]: 7.55 µM (active)

O=C(C/C=N/OCc1ccc(Cl)cc1Cl)c1ccc(Cl)cc1
AC50 (Cytochrome P450 2C9): 17.8 µM (inconclusive)
AC50 (Cytochrome P450 2D6): 17.8 µM (inconclusive)
